Experimental data as given in patent US11357749B2, “Methods for treating neutropenia” (Enzychem Lifesciences Corporation, priority 2014, dated 2022).

Assays:
p38 MAPK = p38 MAPK phosphorylation, western blot in IgE-antigen stimulated RBL-2H3 cells; assay type: cell-based; conditions: PLAG pre-incubated RBL-2H3 cells, IgE-antigen complex stimulation
Description: Dephosphorylation of p38 MAPK and ERK1/2 in PLAG-treated RBL-2H3 cells is determined by western blot analysis using anti-phospho-p38 and anti-phospho-ERK1/2 respectively. To activate the p38 and ERK1/2 in RBL-2H3 cells, the cells are sensitized with 50 ng/mL of anti-DNP-IgE overnight. After washing with PBS three times, 20 ng/ml of DNP-HSA is added. Each cell lysate for western blot is prepared in the PLAG-treated RBL-2H3 cells in a dose-dependent manner and incubated for the same time (15 min). β-actin is used as internal controls. ERK1/2 and p38 phosphorylation start immediately after IgE-antigen complex stimulation and remain sufficiently activated for 5 min.

STAT1 = test: IFN-γ induced STAT1 phosphorylation, western blot in U937 cells; assay type: cell-based; conditions: PLAG 0.01 to 10 μg/ml, 10 ng IFN-γ, 15 min
Description: Dephosphorylation of STAT6 is examined using anti-phosphorylated STAT6 in U937, A549, and Jurkat cell lysates treated with PLAG concentration from 0.01 to 10 μg/ml. Phosphorylation of STAT6 is induced by treatment with 10 ng/ml of IL-4. Dephosphorylation of STAT1 is examined in the U937 cell lysate treated with PLAG (0.01 to 10 μg/ml). Phosphorylation of STAT1 is induced by 10 ng of IFN-γ treatment. Dephosphorylation of STAT1 and STAT6 is examined at 15 min after stimulation with IFN-γ and IL-4 respectively, in the PLAG pretreated cells. […] The transcriptional activity of STAT6 is decreased by the dephosphorylation of STAT6. […] No effect of PLAG on STAT1 phosphorylation is observed.

sepsis = sepsis animal model, cecal-ligation-puncture; stated as known; cited from earlier work
C3 = C3 expression (RT-PCR) in IL-4/TNF-α treated HMC-1 cells; assay type: cell-based, human; conditions: HMC-1 cells treated with IL-4 and TNF-α; PLAG 0.1 and 1 μg/mL
Description: A blood cell line, HMC-1 (human mast cell, American Type Culture Collection, ATCC, Rockville, Md.) is incubated and maintained at 37° C. under 5% CO2 humid conditions. The medium is IMDM (Life Technologies, Karlsruhe, Germany) containing 10% Fetal Calf Serum (FCS, HyClone, Logan, Utah), 2 mM […], 100 μg/ml penicillin, 100 μg/ml streptomycin (Life Technologies). The cultured HMC-1 cells (1×10^6 cell/ml) are pre-treated with 0.1 and 1 μg/mL concentration of PLAG, followed by treating with IL-4 (5 ng) and/or TNF-α (10 ng) to induce cellular activities.
The expressed C3 and its mRNA level change are observed by using RT-PCR (Reverse Transcriptase Polymerase Chain Reaction). The RT-PCR is carried out as follows: the total RNA is separated by the standard protocol and cDNA is synthesized using AccuScript High Fidelity 1st Strand cDNA Synthesis Kit (Stratagene) by the manufacturer's instructions. Two-step RT-PCR reaction is conducted using Oligo-dT primer and reverse transcriptase, pair of primer and Taq polymerase (Takara, Shiga, Japan). […] The product of PCR is separated using 1.5% agarose gel, dyed with ethidium bromide (EtBr), and visualized with Gel Doc 2000 UV trans-illuminator (Bio-Rad Laboratories, Hercules, Calif., USA), and the experimental data is analyzed using Quantity One software (Bio-Rad Laboratories).

Complement 3 = test: Clinical study in healthy subjects: Complement 3 in blood; assay type: in vivo, human
Description: A clinical study is conducted in Gwandong University MyungJi Hospital Clinical Study Center in Republic of Korea with 27 healthy patients to study immune-modulating effect of PLAG. Volunteers are tested for 30 days in vivo as oral administer (500 mg of PLAG per day) under a legitimate clinical approval. Complement 3 is counted using C3 assay kit. The analysis result is shown in FIG. 7, and change of immunoactivity by the administration of PLAG in healthy subjects is shown in Table 8 (effect of PLAG supplementation on immune function of peripheral blood after 4-wk intervention). As shown in FIG. 7 and Table 8, the majority of those who consume PLAG for a month (twenty-six (26) subjects out of 27 patients) show decreased complement 3 (C3), while the control group, who are treated with soybean oil, show both increase and decrease of C3.

neutrophils = test: Migration of neutrophils in LPS-injected mice (blood and lymph counts); assay type: in vivo
Description: Mice are injected with bacterial lipopolysaccharide (LPS) to provoke an inflammatory response, in the presence or absence of PLAG: […]

platelets = test: Tamoxifen-induced platelet reduction in mice; assay type: in vivo; conditions: Tam 100 mg/kg + PLAG 5 mg/kg, after 15 hours
Description: Mice are injected with 100 mg/kg phenylhydrazine (PHZ), i.p., to induce anemia and reduction of platelets. 5 mg/kg PLAG is administered to the mice orally and blood samples are taken at 3 and 13 days after. In addition, for comparison, normal mice which are not treated with phenylhydrazine are prepared as a normal group, and mice treated with PHZ and olive oil instead of PLAG are prepared as a control group. The blood samples taken from the mice are treated with 0.5 ml EDTA (Minicollect tube, Greiner bio-one, Austria) and concentration of platelet is measured using automated blood sample analyzer BC-6800 (Mindray, Shenzhen, China) by number of platelet per […] (k: 1,000).
The experiment is repeated using Tamoxifen (Tam), an anticancer agent, injected at the amount of 100 mg/kg, or lipopolysaccharide (LPS), an inflammation inducer, at the amount of 1 mg/kg to induce platelet reduction. Platelet concentration is measured 15 hours after PLAG treatment. For comparison, olive oil and PBS are used instead of PLAG as controls, respectively for the Tamoxifen and lipopolysaccharide experiment.

Q: With CCCCC/C=C\C/C=C\CCCCCCCC(=O)OC(COC(C)=O)COC(=O)CCCCCCCCCCCCCCC (racemic) [PLAG, 1-palmitoyl-2-linoleoyl-3-acetylglycerol] as the molecule, how does the p38 phosphorylation (p38 MAPK) read?
A: down-regulated

Q: And the STAT1 phosphorylation (STAT1)?
A: No effect

Q: What about the “survivability ratio of animals” value (sepsis) of the same molecule?
A: increases survivability ratio

Q: And the “expression of C3” value (C3)?
A: suppressed by PLAG on a concentration dependent basis

Q: And the “subjects showing decreased complement 3 (C3)” value (Complement 3; 500 mg PLAG per day oral for a month)?
A: 26 subjects out of 27

Q: What about the “decrease of average concentration of C3 in blood” value (Complement 3; after administration of PLAG 500 mg per day, 30 days) of the same molecule?
A: about 10 mg/dL

Q: What about the “C3, After” value (Complement 3; healthy subjects n = 27, 500 mg PLAG per day oral, after 4-wk intervention) of the same molecule?
A: 99.7 ± 12.4 mg/dL

Q: And the “C3, Before” value (Complement 3; healthy subjects n = 27, before PLAG supplementation)?
A: 109.5 ± 13.0 mg/dL

Q: What about the “Neutrophil count in blood” value (neutrophils; LPS + PLAG) of the same molecule?
A: 3.41 k/μl

Q: And the “Neutrophil count in lymph” value (neutrophils; LPS + PLAG)?
A: 1.48 k/μl

Q: And the “migration of neutrophils to the lymph node” value (neutrophils; LPS + PLAG vs LPS only)?
A: inhibits migration

Q: What about the “Platelet Conc.” value (platelets) of the same molecule?
A: 780.7 ± 195.9 k/ul
